These results are taken from patent US6855519B2, “Methods for enhancing the production of interferon in cell culture” (The Regents of the University of California, priority 1995, dated 2005).

Holding throughout (format): cell-based
For data set [1], the system named is U937-PKR+ cells. The experiment in a line: Interferon induction in U937-PKR+ cells (IFN assay of culture supernatants). The method, then:
(§1) FIG. 2. Interferon induction in U937-PKR+ cells and control U937-neo cells. U937-PKR+ cells and U937-neo cells (0.5×10^6/ml) were cultured in RPMI 1640 medium, supplemented with 5% fetal bovine serum. The cells were pretreated (“primed”) with or without 10 nM PMA for 20 hrs followed by induction with 10 μg/ml poly r(I):poly r(C) or with 0.1 TCID50/cell EMCV for 20 hrs. Twenty-four hours after induction, culture supernatants were collected and assayed for IFN-α. The open bars indicate U937-neo cells, the hatched bars indicate U937-PKR+ cells. The experimental groups indicate different treatments: 1-no treatment; 2-poly r(I):poly r(C) induction alone; 3-EMCV induction alone; 4-PMA priming alone; 5-PMA priming and poly r(I):poly r(C) induction; 6-PMA priming and EMCV induction.
(§2) The levels of IFN-α in the preparations can be determined by titrating for antiviral activity on L929 (murine fibroblast) cells against National Institute of Allergy and Infectious Diseases reference standard G-023-901-527 (Lau et al. J. Clin. Invest. 82:1415-1421 1988). In this technique, 5×10^4 L929 cells are seeded into each well of 96-well microtiter plates and then incubated with two-fold serial dilutions of culture supernatants for 16 hr. The cells are subsequently challenged with EMCV or Sendai virus (0.1 or 0.01 TCID per cell). Virus-induced cytopathic effects were assessed by microscopic examination and by staining cells with 0.1% crystal violet in 5% ethanol solutions. The IFN titer is defined as the reciprocal of the highest dilution of culture supernatants capable of protecting 50% of the cells from viral-induced cytopathic effects.
U937-PKR+ cells and U937-neo cells were cultured in RPMI 1640 medium, supplemented with fetal bovine serum. The cells were pretreated with or without phorbol myristate acetate (PMA) (10 nM) for 20 hr and with or without subsequent stimulation by poly r(I):r(C), 10 ug/ml, for 20 hr. Twenty-four hr after the stimulation with poly r(I):r(C), culture supernatants were collected for IFN assays.

For data set [2], the system named is U937-PKR+ cells. Kind of data set: Trypan blue exclusion viability assay following induction. The text has this: Following induction by poly r(I):poly r(C), the U937-PKR+ cells were examined for viability using a trypan blue exclusion assay. […] Thus, the U937-PKR+ cells can be recycled for continuous production of IFN.
In another data set the test system is U937-neo cells. Kind of data set: Interferon induction in control U937-neo cells (IFN assay of culture supernatants). Conditions: inducer 10 μg/ml for 20 hr, either with or without 10 nM PMA priming. The method, then:
as §1
as §2, with “The cells are subsequently challenged with EMCV or Sendai virus (0.1 or 0.01 TCID per cell).” left out, “The IFN titer is defined as the reciprocal of the highest dilution of culture supernatants capable of protecting 50% of the cells from viral-induced cytopathic effects.” left out

On to `CCCCCCCCCCCCCC(=O)O[C@@H]1[C@@H](C)[C@@]2(O)[C@@H](C=C(CO)C[C@]3(O)C(=O)C(C)=C[C@@H]23)[C@@H]2C(C)(C)[C@]12OC(C)=O` [PMA, phorbol myristate acetate], for which the IFN production entry in the data set with U937-PKR+ cells [1] (PMA priming alone, no EMCV or poly r(I):poly r(C) inducer, compared with U937-neo cells) is “higher levels of IFNs than did U937-neo cells”.
As to poly r(I):poly r(C), the viable cells entry in the data set on U937-PKR+ cells [2] is recorded as “more than 95%”. In the data set on U937-PKR+ cells [1] (inducer 10 μg/ml for 20 hr, with or without 10 nM PMA priming), the IFN production result is “increased IFN production”. This compound also came in with an IFN level with U937-PKR+ cells [1] (with 10 nM PMA priming 20 hr, then induction) of 4000 U/ml. Moreover, the IFN-α synthesis entry in the data set on U937-neo cells is given as “minimal synthesis of IFN-α”.
